# From patent US20260285850A1, “SUBSTITUTED OXAZOLIDINONES AND IMIDAZOLINONES AS HERBICIDES” (FMC CORPORATION, priority 2023, published 2026)
# Key:
# Format in all cases: in vivo
# [1] = system: blackgrass (Alopecurus myosuroides); assay: Test A postemergence application, visual injury rating 0-100
# In short: (§1)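 Visual injury, scored 0-100 (100 = complete control) against untreated plants, 10 days after greenhouse treatment. Test chemicals in surfactant-containing non-phytotoxic solvent were applied in loam soil and sand, as a preemergence soil spray on seeds or postemergence to plants at the one- to two-leaf stage.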
# kochia (Bassia scoparia) [2] = assay: as above
# In short: as §1
# [3] = system: ragweed (common ragweed, Ambrosia artemisiifolia); assay: as above
# In short: as §1
# [4] = system: palmer (palmer amaranth, palmer pigweed, Amaranthus palmeri); assay: as above
# In short: as §1
# [5] = system: oat, wild (wild oat, Avena fatua); assay: as above
# In short: as §1
# [6] = system: green foxtail (Setaria viridis); assay: as above
# In short: as §1
# corn (Zea mays) [7] = assay: as above
# In short: as §1
# [8] = system: barnyardgrass (Echinochloa crus-galli); assay: as above
# In short: as §1
# [9] = system: horseweed (Erigeron canadensis); assay: as above
# In short: as §1
# soybean (Glycine max) [10] = assay: as above
# In short: as §1
# [11] = system: galium (catchweed bedstraw, Galium aparine); assay: as above; details: Postemergence, 16 g ai/ha, greenhouse 10 days; 0 no effect, 100 complete control
# In short: as §1
# [12] = system: ryegrass, Italian (italian ryegrass, Lolium multiflorum); assay: as above
# In short: as §1
# [13] = system: wheat (Triticum aestivum); assay: as above
# In short: as §1
# [14] = system: ducksalad (Heteranthera limosa); assay: Test B flooded paddy test, visual plant response rating 0-100; details: 250 g ai/ha, Flood, applied to paddy water, evaluated after 13 days
# In short: (§2)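 Visual scores versus untreated controls were recorded 13 days after treatment of greenhouse-held plants. At the 2-leaf stage, pots were flooded 3 cm above the soil surface and compounds added straight to the water.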
# rice (Oryza sativa) = assay: as above; details: 250 g ai/ha, Flood, applied to paddy water, evaluated after 13 days
# In short: as §2
# [15] = system: barnyardgrass (Echinochloa crusgalli); assay: as above; details: 250 g ai/ha, Flood, applied to paddy water, evaluated after 13 days
# In short: as §2
# [16] = system: sedge, umbrella (small-flower umbrella sedge, Cyperus difformis); assay: as above; details: 250 g ai/ha, Flood, applied to paddy water, evaluated after 13 days
# In short: as §2
# [17] = system: blackgrass (Alopecurus myosuroides); assay: Test A preemergence soil spray, visual injury rating 0-100; details: 10 days
# In short: as §1
# kochia (Bassia scoparia) [18] = assay: as above; details: 10 days
# In short: as §1
# [19] = system: ragweed (common ragweed, Ambrosia artemisiifolia); assay: as above; details: 10 days
# In short: as §1
# [20] = system: palmer (palmer amaranth, palmer pigweed, Amaranthus palmeri); assay: as above; details: 10 days
# In short: as §1
# [21] = system: oat, wild (wild oat, Avena fatua); assay: as above; details: 10 days
# In short: as §1
# [22] = system: green foxtail (Setaria viridis); assay: as above; details: 10 days
# In short: as §1
# corn (Zea mays) [23] = assay: as above; details: 10 days
# In short: as §1
# [24] = system: barnyardgrass (Echinochloa crus-galli); assay: as above; details: 10 days
# In short: as §1
# soybean (Glycine max) [25] = assay: as above; details: 10 days
# In short: as §1
# [26] = system: ryegrass, Italian (italian ryegrass, Lolium multiflorum); assay: as above; details: 10 days
# In short: as §1
# [27] = system: wheat (Triticum aestivum); assay: as above; details: 10 days
# In short: as §1
# [28] = 62 g ai/ha, postemergence, 10 days, 0 = no effect, 100 = complete control
# [29] = Postemergence, 16 g ai/ha, greenhouse 10 days, 0 no effect, 100 complete control
# [30] = 62 g ai/ha, 0 = no effect, 100 = complete control
compound,measurement,setting,value
CSCCOC(=O)C1=CCC(NC(=O)C2(C)CN(c3cc(Cl)cc(Cl)c3)C(=O)O2)C1 (stereo not drawn) [Compound 146],Blackgrass plant response rating (0-100),[1]; [28],0
same,Blackgrass plant response rating (0 to 100 scale),[1]; [29],0
same,Kochia plant response rating (0-100),kochia (Bassia scoparia) [2]; [28],0
same,Kochia plant response rating (0 to 100 scale),kochia (Bassia scoparia) [2]; [29],0
same,Ragweed plant response rating (0-100),[3]; [28],0
same,Ragweed plant response rating (0 to 100 scale),[3]; [29],0
same,"Pigweed, Palmer plant response rating (0-100)",[4]; [28],0
same,"Pigweed, Palmer plant response rating (0 to 100 scale)",[4]; [29],0
same,"Oat, Wild plant response rating (0-100)",[5]; [28],0
same,"Oat, Wild plant response rating (0 to 100 scale)",[5]; [29],0
same,"Foxtail, Green plant response rating (0-100)",[6]; [28],0
same,"Foxtail, Green plant response rating (0 to 100 scale)",[6]; [29],0
same,Corn plant response rating (0-100),corn (Zea mays) [7]; [28],0
same,Corn plant response rating (0 to 100 scale),corn (Zea mays) [7]; [29],0
same,Barnyardgrass plant response rating (0-100),[8]; [28],20
same,Barnyardgrass plant response rating (0 to 100 scale),[8]; [29],0
same,Horseweed plant response rating (0-100),[9]; [28],10
same,Horseweed plant response rating (0 to 100 scale),[9]; [29],0
same,Soybean plant response rating (0-100),soybean (Glycine max) [10]; [28],0
same,Soybean plant response rating (0 to 100 scale),soybean (Glycine max) [10]; [29],0
same,Galium plant response rating (0 to 100 scale),[11],0
same,"Ryegrass, Italian plant response rating (0-100)",[12]; [28],0
same,"Ryegrass, Italian plant response rating (0 to 100 scale)",[12]; [29],0
same,Wheat plant response rating (0-100),[13]; [28],0
same,Wheat plant response rating (0 to 100 scale),[13]; [29],0
same,"Plant response rating, Ducksalad (0 to 100 scale, 0 is no effect and 100 is complete control)",[14],0
same,"Plant response rating, Rice (0 to 100 scale, 0 is no effect and 100 is complete control)",rice (Oryza sativa),0
same,"Plant response rating, Barnyardgrass (0 to 100 scale, 0 is no effect and 100 is complete control)",[15],0
same,"Plant response rating, Sedge, Umbrella (0 to 100 scale, 0 is no effect and 100 is complete control)",[16],0
same,Blackgrass plant response rating,"[17]; 16 g ai/ha, 0 to 100 scale",0
same,Blackgrass plant response rating (0-100),[17]; [30],0
same,Kochia plant response rating,"kochia (Bassia scoparia) [18]; 16 g ai/ha, 0 to 100 scale",0
same,Kochia plant response rating (0-100),kochia (Bassia scoparia) [18]; [30],0
same,Ragweed plant response rating,"[19]; 16 g ai/ha, 0 to 100 scale",0
same,Ragweed plant response rating (0-100),[19]; [30],0
same,"Pigweed, Palmer plant response rating","[20]; 16 g ai/ha, 0 to 100 scale",0
same,"Pigweed, Palmer plant response rating (0-100)",[20]; [30],0
same,"Oat, Wild plant response rating","[21]; 16 g ai/ha, 0 to 100 scale",0
same,"Oat, Wild plant response rating (0-100)",[21]; [30],0
same,"Foxtail, Green plant response rating","[22]; 16 g ai/ha, 0 to 100 scale",0
same,"Foxtail, Green plant response rating (0-100)",[22]; [30],0
same,Corn plant response rating,"corn (Zea mays) [23]; 16 g ai/ha, 0 to 100 scale",0
same,Corn plant response rating (0-100),corn (Zea mays) [23]; [30],0
same,Barnyardgrass plant response rating,"[24]; 16 g ai/ha, 0 to 100 scale",0
same,Barnyardgrass plant response rating (0-100),[24]; [30],0
same,Soybean plant response rating,"soybean (Glycine max) [25]; 16 g ai/ha, 0 to 100 scale",0
same,Soybean plant response rating (0-100),soybean (Glycine max) [25]; [30],0
same,"Ryegrass, Italian plant response rating","[26]; 16 g ai/ha, 0 to 100 scale",0
same,"Ryegrass, Italian plant response rating (0-100)",[26]; [30],20
same,Wheat plant response rating,"[27]; 16 g ai/ha, 0 to 100 scale",0
same,Wheat plant response rating (0-100),[27]; [30],0
